Results as given in US8778882B2, “Agent for strengthening calcium containing tissue and use thereof” (Hayashibara Co., Ltd., priority 2002, dated 2014).

Experiments:
Format in all cases: cell-based
[1] = tested on: mouse pre-osteoblastic cell MC3T3-E1; assay: Alkaline phosphatase activity in mouse pre-osteoblastic cells; conditions: for activity at 20 µM: Mus musculus
Procedure: To increase number of osteoblastic cells having calcium-deposition activity is important for increasing bone mass. […] The activity is at low level in pre-osteoblastic cells and at high level in osteoblastic cells differentiated form the pre-osteoblastic cells. […] Since final ethanol concentration in the medium is 0.2% (v/v), α-MEM medium containing 0.2% (v/v) ethanol was prepared as a negative control. The cells were inoculated for eight days as changing the medium therewith to fresh medium with or without each sample per three days. Alkaline phosphatase activity was measured using “Alkaline Phospha B-Test Wako” (commercialized by Wako Pure Chemical Industries, Osaka, Japan) according with Kajii et al (Archives of Oral Biology, Vol. 44, pp. 233-241, (1999)). Briefly, to the above described mouse pre-osteoblastic cells washed with 1 ml of 0.25 M sucrose solution three times after removing the medium were added 0.45 ml of 50 mM carbonate salt buffer (pH9.8) containing 1 mM magnesium chloride and 50 mM sucrose and 0.05 ml of 3.4 mM disodium p-nitrophenyl phosphate in due course. The mixture was incubated at 25° C. for five minutes and admixed with 1.5 ml of 0.6N sodium hydroxide as a reaction terminator. Absorbance 405 nm of p-nitrophenol generated by alkaline phosphatase in the resulting mixture was measured, and the obtained values were used as values as alkaline phosphatase activity. […] The experiment was performed by the method according to Experiment 1 except that culture day in the medium containing each sample was three, six or nine, and concentration of each sample was 5, 10 or 20 μM. […] As a negative control, mediums containing ethanol in the above concentration were prepared for calculating relative activity to the activity of each control.

[2] = tested on: Mouse MC3T3-E1 cells; assay: Calcium deposition by alizarin red-S staining; parameters: key: +: same strength of red color as a negative control (only medium containing 0.2% (v/v) ethanol); ++: half strength of the positive control; +++: same strength of red color as a positive control (indomethacin); conditions: MC3T3-E1, 20 mM each compound (so in the source), eight days, alizarin red-S red color judgement
Text: Following Experiment 1 which investigates differentiating pre-osteoblastic cells into osteoblastic cells, some of organic compounds were investigated whether they actually enhance calcium deposition or not. Indomethacin (commercialized by Funakoshi, Co., Ltd., Tokyo, Japan) (positive control), kaempferol (commercialized by Funakoshi, Co., Ltd., Tokyo, Japan), hesperetin (commercialized by Funakoshi, Co., Ltd., Tokyo, Japan), gallic acid (commercialized by Nacalai Tesque, Kyoto, Japan), and coffeic acid (commercialized by Wako Pure Chemical Industries, Osaka, Japan) were selected as organic compounds. Mouse MC3T3-E1 cells were treated with 20 mM each above compound dissolved in 1 ml of α-MEM medium supplemented with 10% (v/v) fetal calf serum and containing 10 mM β-glycerophosphate. Since final ethanol concentration in the medium is 0.2% (v/v), α-MEM medium containing 0.2% (v/v) ethanol was prepared as a negative control. The cells were inoculated for eight days as changing the medium therewith to fresh medium with or without each sample per three days. The cells were applied to measure calcium deposition therein by usual alizarin red-S staining method. Briefly to the cells washed with 1 ml of Dulbecco phosphate buffer saline twice after removing the medium were added 1 ml of 50 (v/v) % ethanol aqueous solution and incubated for 10 minutes. After removing the 50 (v/v) % ethanol aqueous solution, the cells were incubated with 1 ml of distilled water for 10 minutes. After removing the water, the cells were applied with 1 ml of 1% (w/v) alizarin red-S solution, incubated for 10 minutes, and washed with 1 ml of distilled water for three times after removing alizarin red-S solution. Then, the calcium deposition amount was measured in a manner of judging red color on the plate bottom since deposited calcium was stained by the above treatment. The judgement criterion “+” means same strength of red color as a negative control (only medium containing 0.2% (v/v) ethanol), “+++” means same strength of red color as a positive control (indomethacin), and “++” means half strength of the positive control.

[3] = tested on: mouse pre-osteoblastic cell MC3T3-E1; assay: Calcium deposition amount by Calcium C Test Wako; conditions: Mus musculus, MC3T3-E1; flavonoid comparison, Calcium C Test Wako, relative to 0.2% (v/v) ethanol negative control
Text: Other flavonoid compounds than kaempferol or hesperetin were investigated where they have the same effect or not. Flavone (commercialized by Kanto Kagaku, Tokyo, Japan), apigenin (commercialized by Funakoshi, Co., Ltd., Tokyo, Japan), flavonol (commercialized by Tokyo Kasei Kogyo, Co., Ltd., Tokyo, Japan), quercetin (commercialized by Kanto Kagaku, Tokyo, Japan), kaempferol (commercialized by Funakoshi, Co., Ltd., Tokyo, Japan), rutin (commercialized by Kanto Kagaku, Tokyo, Japan), flavanone (commercialized by Kanto Kagaku, Tokyo, Japan), naringenin (commercialized by Ardrich Corporation), hesperetin (commercialized by Funakoshi, Co., Ltd., Tokyo, Japan), hesperidin (commercialized by Kanto Kagaku, Tokyo, Japan), chalcone (commercialized by Merk Corporation), fuloretin (commercialized by Sigma Corporation), catechin (commercialized by Sigma Corporation), ipriflavone (commercialized by Daito Corporation, Toyama, Japan), taxifolin (commercialized by Funakoshi, Co., Ltd., Tokyo, Japan), sulfuretin (commercialized by Funakoshi, Co., Ltd.; Tokyo, Japan), or cyanidin (commercialized by Funakoshi, Co., Ltd., Tokyo, Japan) was selected as test samples. Alkaline phosphatase activity was measured by the method of Experiment 1. Calcium deposition was measured by usual method using “Calcium C Test Wako” (commercialized by Wako Pure Chemical Industries, Osaka, Japan), briefly, cultured cells were washed with 1 ml of Dulbecco phosphate buffer saline three times after removing the medium. To the resultant was added 0.5 ml of 2N hydrochloric acid to resolve deposited calcium. To 5 μl of the resultant solution were added 0.5 ml of 0.88M monoethanolamine buffer (pH11) and 0.05 ml of 0.63 mM o-cresolphthalein complexone solution (binding to calcium ion to form chelate complex) containing 69 mM 8-quinolinol and mixed. Calcium amount per one hole of the plate was calculated by measuring absorbance 570 nm of the resultants and standardizing with a standard calcium solution. The judgement of alkaline phosphatase activity or calcium deposition amount of each sample was to calculate the relative activity or the relative calcium deposition amount to the negative control (only medium containing 0.2% (v/v) ethanol) and to compare each other.
The enhancement of calcium deposition between kaempferol and ipripfavone were compared. Test samples and their adding manner were same as Experiment 4. Calcium deposition amount was measured by usual method using “Calcium C Test Wako” (commercialized by Wako Pure Chemical Industries, Osaka, Japan); briefly, cultured cells were washed with 1 ml of Dulbecco phosphate buffer saline three times after removing the medium. To the resultant was added 0.5 ml of 2N hydrochloric acid to resolve deposited calcium. To 5 μl of the resolving solution were added 0.5 ml of 0.88M monoethanolamine buffer (pH11) and 0.05 ml of 0.63 mM o-cresolphthalein complexone solution (binding to calcium ion to form chelate complex) containing 69 mM 8-quinolinol and mixed, Calcium amount per one hole of the plate was calculated by measuring absorbance 570 nm of the resultants and standardizing with a standard calcium solution.
Kaempferol or hesperetin in combination with ipriflavone, or a kind of isoflavones, was investigated whether to enhance calcium deposition or not. Methods for preparing samples and culturing the cells were the same method described in Experiment 1 except culturing the cells for five days, Method for measuring calcium was the same method described in Experiment 3 and 5. Final ethanol concentration of the medium containing each sample was adjusted as same concentration.

[4] = 192 h, MC3T3-E1, 20 mM each compound (so in the source), eight days, relative to 0.2% (v/v) ethanol negative control

Row | Structure (SMILES) | activity at 20 µM [1, 4] | Calcium Deposition Amount [2] | Relative Alkaline Phosphatase Activity (%) ([1]; MC3T3-E1, 20 mM each compound (so in the source), eight days, relative to 0.2% (v/v) ethanol negative control) | activity at 20 µM [3] | activity at 20 µM ([1]; MC3T3-E1, flavonoid comparison, method of Experiment 1, relative to 0.2% (v/v) ethanol negative control)
1 | O=C(O)c1cc(O)c(O)c(O)c1 [Gallic Acid, gallic acid] | 79% | + |  |  | 
2 | O=C(O)/C=C/c1ccc(O)c(O)c1 [Coffeic Acid, coffeic acid] |  | + | 97% |  | 
3 | COc1ccc2c(c1)c(CC(=O)O)c(C)n2C(=O)c1ccc(Cl)cc1 [Indomethacin, indomethacin, reference compound] | 142% | +++ |  |  | 
4 | O=c1c(O)c(-c2ccc(O)cc2)oc2cc(O)cc(O)c12 [Kaempferol] | 162% | +++ |  | 305% | 162%
